SMILES strings stand for the structures.

T1 sequence (O14744 2-637 limits assumed): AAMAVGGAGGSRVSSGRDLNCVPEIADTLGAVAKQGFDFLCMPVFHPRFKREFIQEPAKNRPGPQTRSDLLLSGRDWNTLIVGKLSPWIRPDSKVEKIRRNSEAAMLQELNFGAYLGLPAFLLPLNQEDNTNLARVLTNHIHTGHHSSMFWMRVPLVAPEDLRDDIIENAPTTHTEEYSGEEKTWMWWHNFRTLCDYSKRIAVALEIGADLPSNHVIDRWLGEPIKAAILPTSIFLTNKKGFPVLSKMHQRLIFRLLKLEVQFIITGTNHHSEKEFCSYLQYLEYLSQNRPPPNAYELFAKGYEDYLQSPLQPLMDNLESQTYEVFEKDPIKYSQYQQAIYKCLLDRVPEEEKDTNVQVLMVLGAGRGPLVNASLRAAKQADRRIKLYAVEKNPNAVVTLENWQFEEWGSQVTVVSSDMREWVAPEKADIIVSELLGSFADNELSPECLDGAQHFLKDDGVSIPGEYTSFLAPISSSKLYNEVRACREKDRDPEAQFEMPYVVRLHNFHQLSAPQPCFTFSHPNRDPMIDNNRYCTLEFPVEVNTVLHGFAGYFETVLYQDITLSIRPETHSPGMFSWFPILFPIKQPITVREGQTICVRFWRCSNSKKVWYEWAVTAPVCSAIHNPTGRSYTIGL
T1 sequence (Q9BQA1 2-342 partner limits assumed): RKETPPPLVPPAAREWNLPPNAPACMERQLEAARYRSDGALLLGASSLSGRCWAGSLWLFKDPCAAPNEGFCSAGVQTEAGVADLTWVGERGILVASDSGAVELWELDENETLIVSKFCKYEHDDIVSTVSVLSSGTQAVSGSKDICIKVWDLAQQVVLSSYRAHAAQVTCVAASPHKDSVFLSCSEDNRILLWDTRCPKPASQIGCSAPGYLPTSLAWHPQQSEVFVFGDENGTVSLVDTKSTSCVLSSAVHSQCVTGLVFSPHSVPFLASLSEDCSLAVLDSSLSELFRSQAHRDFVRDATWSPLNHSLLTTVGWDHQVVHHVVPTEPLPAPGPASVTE

The first assay concerns the target T1, PRMT5/MEP50 complex (Homo sapiens, UniProt O14744).
T1 construct: purchased Reaction Biology Corporation
The assay is described as follows: PRMT5:MEP50 HotSpot Assay (full-length histone H2A substrate, plus and minus MTA). The assay is classed as biochemical. As to conditions: IC50 + 2 μM MTA, in the presence of 2 μM MTA. As to the method: The PRMT5 inhibitory activity of compounds of the present invention was determined using either a PRMT5:MEP50 FlashPlate Assay (Reaction Biology Corporation) or a PRMT5:MEP50 HotSpot Assay (Reaction Biology Corporation).
The assay uses recombinant full-length hi stone H2A as the PRMT5 substrate. […] The reaction was stopped and transferred to filter paper for detection. The amount of tritiated H2A in each sample was determined using a scintillation counter.
In the case of `Cn1ncc(-c2ccc3c(=O)[nH]nc(CN)c3c2)c1-c1c(F)c(Cl)cc(CC2CC2)c1C#N` (single isomer, unassigned) [Example 16-126, (M)-2-(4-(4-(aminomethyl)-1-oxo-1,2-dihydrophthalazin-6-yl)-1-methyl-1H-pyrazol-5-yl)-4-chloro-6-(cyclopropylmethyl)-3-fluorobenzonitrile], the IC50 stood at 29 nM.

Take `Cn1ncc(-c2ccc3c(c2)C(CCN)NC3=O)c1-c1sc2ccccc2c1C#N` (stereo not drawn) [Example 20-5, 2-[4-[3-(2-aminoethyl)-1-oxo-isoindolin-5-yl]-2-methyl-pyrazol-3-yl]benzothiophene-3-carbonitrile]: the IC50 came out at 635 nM.

In the case of `Cn1ncc(-c2cc3c(CN)n[nH]c(=O)c3s2)c1-c1ccc2ccccc2c1C#N` [Example 17-7, 2-(4-(4-(aminomethyl)-7-oxo-6,7-dihydrothieno[2,3-d]pyridazin-2-yl)-1-methyl-1H-pyrazol-5-yl)-1-naphthonitrile], the IC50 worked out at 2310 nM.

For `Cc1c(Cl)cc(OC2CC2)c(C#N)c1-c1c(-c2ccc3c(=O)[nH]nc(CN)c3c2)cnn1C` (single isomer, unassigned) [Example 16-122, (P)-2-(4-(4-(aminomethyl)-1-oxo-1,2-dihydrophthalazin-6-yl)-1-methyl-1H-pyrazol-5-yl)-4-chloro-6-cyclopropoxy-3-methylbenzonitrile], the IC50 worked out at 112 nM.

As for `Cn1ncc(-c2ccc3c(c2)C(C)(N)CNC3=O)c1-c1sc2ccccc2c1C#N` (stereo not drawn) [Example 20-7, 2-(4-(4-amino-4-methyl-1-oxo-1,2,3,4-tetrahydroisoquinolin-6-yl)-1-methyl-1H-pyrazol-5-yl)benzo[b]thiophene-3-carbonitrile], the IC50 is more than 10000 nM.

`Cn1ncc(-c2ccc3c(=O)[nH]nc(CN)c3c2)c1N1CCCC1C#N` (stereo not drawn) [Example 4-290, 1-(4-(4-(aminomethyl)-1-oxo-1,2-dihydrophthalazin-6-yl)-1-methyl-1H-pyrazol-5-yl)pyrrolidine-2-carbonitrile]: the IC50 was 168 nM.

Take `Cc1ncc(-c2ccc3c(=O)[nH]nc(CN)c3c2)n1-c1sc2ccccc2c1C#N` [Example 4-288, 2-(5-(4-(aminomethyl)-1-oxo-1,2-dihydrophthalazin-6-yl)-2-methyl-1H-imidazol-1-yl)benzo[b]thiophene-3-carbonitrile]: the IC50 came out at 1480 nM.

Regarding `Cn1ncc(-c2ccc3c(=O)[nH]nc(CN)c3c2)c1-c1c(Cl)c(Cl)cc(OC2CC2)c1C#N` (single isomer, unassigned) [Example 16-124, (M)-2-(4-(4-(aminomethyl)-1-oxo-1,2-dihydrophthalazin-6-yl)-1-methyl-1H-pyrazol-5-yl)-3,4-dichloro-6-cyclopropoxybenzonitrile], the IC50 amounted to 70 nM.

As to `Cn1nnc(-c2ccc3c(=O)[nH]nc(CN)c3c2)c1-c1sc2ccccc2c1C#N` [Example 4-291, 2-(4-(4-(aminomethyl)-1-oxo-1,2-dihydrophthalazin-6-yl)-1-methy1-1H-1,2,3-triazol-5-yl)benzo[b]thiophene-3-carbonitrile], the IC50 is 737 nM.

In the case of `Cn1ncc(-c2ccc3c(=O)[nH]nc(CN)c3c2)c1-c1c(F)cnc(OC2CC2)c1C#N` (atropisomer, axis not shown; (P)) [Example 16-135, (P)-4-(4-(4-(aminomethyl)-1-oxo-1,2-dihydrophthalazin-6-yl)-1-methyl-1H-pyrazol-5-yl)-2-cyclopropoxy-5-fluoronicotinonitrile], the IC50 came out at 758 nM.

As to `Cn1ncc(-c2ccc3c(=O)[nH]nc(CN)c3c2)c1-c1c(C(F)F)cc2ccccc2c1C#N` (single isomer, unassigned) [Example 16-129, (P)-2-(4-(4-(aminomethyl)-1-oxo-1,2-dihydrophthalazin-6-yl)-1-methyl-1H-pyrazol-5-yl)-3-(difluoromethyl)-1-naphthonitrile], the IC50 stood at 5250 nM.

Regarding `Cn1ncc(-c2ccc3c(=O)[nH]nc(CN)c3c2)c1-c1c(F)cc(S(F)(F)(F)(F)F)cc1C#N` (atropisomer, axis not shown; (M)) [Example 16-134, (M)-2-(4-(4-(aminomethyl)-1-oxo-1,2-dihydrophthalazin-6-yl)-1-methyl-1H-pyrazol-5-yl)-3-fluoro-5-(pentafluoro-16-sulfanyl)benzonitrile], the IC50 was determined as 955 nM.

On to `Cn1ncc(-c2ccc3c(=O)[nH]nc(CN)c3c2)c1-c1c(Cl)ccc(OC2CC2)c1C#N` (atropisomer, axis not shown; (P)) [Example 16-131, (P)-2-(4-(4-(aminomethyl)-1-oxo-1,2-dihydrophthalazin-6-yl)-1-methyl-1H-pyrazol-5-yl)-3-chloro-6-cyclopropoxybenzonitrile], for which the IC50 was found to be 347 nM.

With `Cn1ncc(-c2ccc3c(=O)[nH]nc([C@H](N)C(F)F)c3c2)c1-c1ccc2ccccc2c1C#N` [Example 9-6, 2-[4-[4-[(1S)-1-amino-2,2-difluoro-ethyl]-1-oxo-2H-phthalazin-6-yl]-2-methyl-pyrazol-3-yl]naphthalene-1-carbonitrile], the IC50 was more than 10000 nM.

For `Cn1ncc(-c2ccc3c(=O)[nH]nc(CN)c3c2)c1-c1c(C#N)cc2[nH]cnc2c1Cl` (atropisomer, axis not shown; (M)) [Example 16-115, (M)-5-(4-(4-(aminomethyl)-1-oxo-1,2-dihydrophthalazin-6-yl)-1-methyl-1H-pyrazol-5-yl)-4-chloro-1H-benzo[d]imidazole-6-carbonitrile], the IC50 is 8720 nM.

The same assay, now with this note: in the absence of MTA, read-out: IC50.
With `Cn1ncc(-c2ccc3c(=O)[nH]nc(CN)c3c2)c1-c1ccccc1C#N` [Example 4-100, 2-(4-(4-(aminomethyl)-1-oxo-1,2-dihydrophthalazin-6-yl)-1-methyl-1H-pyrazol-5-yl)benzonitrile], the IC50 is more than 10000 nM.

A further assay has as its system HCT116 homozygous MTAP knockout cells. Nature of the assay: Proliferation assay (CellTiter-Glo, 10 days) in HCT116 homozygous MTAP knockout cells. The following applies: CellTiter-Glo after 10 days of treatment, read-out: Proliferation IC50 (nM) HCT116 MTAP_KO. The assay is classed as cell-based. The method, then:
HCT116 cells were genetically engineered to knock out the function of both MTAP alleles using a CRISPR/Cas9 system and an sgRNA targeting the MTAP gene. Following Cas9/MTAP sgRNA transduction, clones were screened to confirm that each allele of the MTAP gene had been inactivated (i.e., homozygous MTAP knock out) creating an MTAP-deficient cell.
Control samples were analyzed in parallel.
Briefly, on Day 0, 250 HCT116 parental or HCT116 homozygous MTAP knockout cell were seeded in 96 well plates in McCoy's 5A supplemented with […] fetal bovine serum and pen/strep and the cells were incubated overnight at 37° C. plus 5% CO2.
The following day, cells were treated with DMSO vehicle control or a dose response of PRMT5 inhibitors and incubated at 37 C plus 5% CO2 for five days. On Day 6, the cells were trypsinized and split 1:10 into new 96-well plates with fresh medium containing the same concentration of PRMT5 inhibitor and incubated for an additional 5 days at 37° C. plus 5% CO^2.
On Day 11, the viability of the cells was measured using a CTG assay kit (CellTiter-Glo; Promega cat.no G7573) in accordance with the manufacturer's instructions. The IC50 values for each compound after 10 days of treatment were calculated using GraphPad PRISM software.
(ATP-based viability assays read luminescence as a measure of living cells.)
Regarding `Cn1ncc(-c2ccc3c(=O)[nH]nc(CN)c3c2)c1-c1cc2ccccn2c1C#N` [Example 4-227, 2-(4-(4-(aminomethyl)-1-oxo-1,2-dihydrophthalazin-6-yl)-1-methyl-1H-pyrazol-5-yl)indolizine-3-carbonitrile], the IC50 amounted to 2370 nM.

Consider `Cn1ncc(-c2ccc3c(=O)[nH]nc(CN)c3c2)c1-c1c(C#N)cc2cccnc2c1Cl` (atropisomer, axis not shown; (M)) [Example 16-84, (M)-7-(4-(4-(aminomethyl)-1-oxo-1,2-dihydrophthalazin-6-yl)-1-methyl-1H-pyrazol-5-yl)-8-chloroquinoline-6-carbonitrile], for which the IC50 worked out at 123 nM.

Turning to `Cn1ncc(-c2ccc3c(=O)[nH]nc(CN)c3c2)c1-c1cccc2c1COCC2(C)O` (atropisomer, axis not shown; (P)) [Example 16-104, (P)-4-(aminomethyl)-6-(5-(4-hydroxy-4-methylisochroman-8-yl)-1-methyl-1H-pyrazol-4-yl)phthalazin-1(21)-one], the IC50 turned out to be 3450 nM.

The assay is the same for the next values; noted with them: Homo sapiens, HCT-116, 240 h, CellTiter-Glo after 10 days of treatment, read-out: Proliferation IC50 (nM) HCT116 MTAP_KO.
As for `COCc1ccc2c(C#N)c(-c3c(-c4ccc5c(=O)[nH]nc(CN)c5c4)cnn3C)sc2c1` [Example 4-271, 2-(4-(4-(aminomethyl)-1-oxo-1,2-dihydrophthalazin-6-yl)-1-methyl-1H-pyrazol-5-yl)-6-(methoxymethyl)benzo[b]thiophene-3-carbonitrile], the IC50 is 289 nM.

Consider `Cn1ncc(-c2ccc3c(=O)[nH]nc(CN)c3c2)c1-c1cc(Cl)c2c(c1C#N)OCCC2` [Example 4-261, 7-[4-[4-(aminomethyl)-1-oxo-2H-phthalazin-6-yl]-2-methyl-pyrazol-3-yl]-5-chloro-chromane-8-carbonitrile], for which the IC50 worked out at 81 nM.
